Among the data in ChEMBL document CHEMBL3507680, “University of Dundee, Gates Library screen for HepG2 cell viability” are cytotoxicity values, retold here.

This series is described as follows: Human HepG2 cell viability assay in 384 well format. It counts as toxicity, cell-based. Also noted: dose 125 nL, time 70.5 hour; cytotoxicity at 70.5 h: concentration not given beside the values. The note with it: HepG2 cells, read-out: Inhibition.
For `COc1ncccc1NC(=O)NCC1CC1`, the cytotoxicity at 70.5 h is -3.58%.
The same measure for `CC(=O)N1CCC(N2CCOC(CC3CCCCC3)C2)CC1` (centres undefined): -4.68%; for `Cc1ccc(C(=O)N2CCN(CCc3ccccc3)CC2)c(=O)[nH]1`: -7.75%; for `Cc1ccc(C)c(-n2nnnc2SCN2CCCCC2=O)c1`: -3.06%.
In the case of `Cc1cc(C)n(C2CN(CC(=O)NCC(C)(C)N3CCOCC3)C2)n1` it was 0.262%; in that of `COCCc1noc(CNCC2CCCN2c2cccnn2)n1` (centres undefined), 2.33%; in that of `Cc1ccnc(CC(C)N(C)c2cc(C3CCNCC3)nc(C)n2)c1` (centres undefined), -3%.
The same measure for `COc1ccccc1OCC(=O)Nc1ncccc1OC(F)F`: -7.67%; for `CSc1ncccc1C(=O)NCCC(O)c1cc(C)oc1C` (centres undefined): -1.76%.
Consider `O=C(NCCc1ccccn1)NC1CCN(c2ncccn2)CC1`, for which the cytotoxicity at 70.5 h was -8%.
The same measure for `O=C1CCCN1Cc1nnc2n1CCCN(Cc1ccco1)C2`: -0.266%; for `O=C([C@H]1CC[C@@H]2[C@@H](CCN2C2CCCC2)O1)N1CCOCC1`: -12.8%.
In the case of `Cn1cc(C(C)(O)CNC(=O)c2ccc(Br)s2)cn1` (centres undefined) it was 48.4%.
Take `Cn1ccc(C(=O)NC2CCC23CCN(CC2CCOCC2)CC3)c1` (centres undefined): the cytotoxicity at 70.5 h stood at 3.91%.
The same measure for `O=C(c1ccc2[nH]ccc2c1)N1CCCSCC1CN1CCCC1` (centres undefined): -2.63%; for `Cn1cc(C2CCCN2C(=O)COCCc2ccccc2)cn1` (centres undefined): -8.67%.
In the case of `Fc1ccc(OCc2nnc([C@H]3CCN(Cc4cccnc4)C3)o2)cc1` it was -6.19%; in that of `CCc1nc(C2CCCN(C(=O)c3ccc4[nH]cnc4c3)C2)no1` (centres undefined), 12.5%; in that of `Cc1cc(C[S+]([O-])CC(=O)NCC(C)C)no1` (centres undefined), -1.65%.
Consider `CCN1CCC(Cn2ccc3c(OC)c(OC)ccc3c2=O)C1` (centres undefined), for which the cytotoxicity at 70.5 h was -2.32%.
`CC(C)N1CCc2c(c(COc3cncnc3)nn2CC2CC2)C1`: the cytotoxicity at 70.5 h was -3.91%.
Consider `COCCC(=O)N1CCC2(CCCN(Cc3cc(OC)ccc3F)C2)C1` (centres undefined), for which the cytotoxicity at 70.5 h is -6.14%.
On to `CC(=O)c1cccc(OCC(=O)NS(=O)(=O)c2cccs2)c1`, for which the cytotoxicity at 70.5 h was -6.58%.
Regarding `Cc1ccccc1CSc1nc(N)cc(N2CCCC(C(N)=O)C2)n1` (centres undefined), the cytotoxicity at 70.5 h is -2.56%.
As for `Cc1nsc(C(=O)N2CCc3ccccc3C2)n1`, the cytotoxicity at 70.5 h was 28.2%.
On to `O=C(COc1ccc(Cl)cc1)Nc1cnc(N2CCOCC2)nc1`, for which the cytotoxicity at 70.5 h is 1.79%.
In the case of `O=C(C1CCCC1)N1CCn2c(nnc2C2CCCNC2)C1` (centres undefined) it was -3.22%.
In the case of `COc1ccc(C)cc1CN1CCn2cccc2C1C` (centres undefined) it was -1.19%.
In the case of `CCNC(=O)C1CCCN(c2cccc(C(F)(F)F)n2)C1` (centres undefined) it was 21.5%; in that of `CCc1ccccc1Nc1noc2c1CN(C(=O)CCOC)CC2`, 18.8%.
Regarding `O=C(c1cccnc1SC/C=C/c1ccccc1)N1CC[C@H](O)C1`, the cytotoxicity at 70.5 h was found to be 2.11%.
In the case of `CCn1ncc2c1C(COC)CN(S(=O)(=O)C1CC1)C2` (centres undefined) it was -8.31%; in that of `CN(C)C(=O)COCc1cncc2c1CCN(C1CCOCC1)C2`, -7.93%; in that of `NC(=O)C1(c2cnccn2)CCCN1Cc1ccc(Cl)cc1` (centres undefined), -9.51%.
With `Cc1cnn(CCNCc2c(C(C)C)nn(C)c2Cl)c1`, the cytotoxicity at 70.5 h was -2.72%.
In the case of `COc1ccc2c(C)c(C(=O)NC3CCOCC3)oc2c1` it was -0.242%; in that of `O=C(c1ccc2c(c1)CCCC2)N1CCOCC1c1ncon1` (centres undefined), 2.82%; in that of `CCCn1c(SCC(N)=O)nnc1-c1csc2c1CCCC2`, -9.81%.
In the case of `CCC(CO)N(Cc1cccnc1)C(=O)c1ccncc1F` (centres undefined) it was -9.31%.
The same measure for `NC(=O)C(NC(=O)CCc1ccc(Cl)s1)c1ccccc1` (centres undefined): -7.77%; for `CNc1ncccc1C(=O)N1CCc2c(nc(N)[nH]c2=O)C1`: -3.13%; for `CN1CCC2(Cc3ccccc3NC2=O)C1` (centres undefined): -3.49%.
`CCn1ccnc1CN1CCCC(CO)(Cc2cccc(OC)c2)C1` (centres undefined): the cytotoxicity at 70.5 h is -14.1%.
As to `COCC(=O)N1CCCC1c1ccc(C(=O)NCCN2CCCCC2)s1` (centres undefined), the cytotoxicity at 70.5 h is -10.2%.
In the case of `Cc1nc(-c2ccc(Cl)s2)sc1C(=O)NC(C)(C)C(N)=O` it was -4.82%; in that of `Cc1[nH]c2ccc(CNC3CCN(Cc4ccccn4)CC3)cc2c1C`, 3.44%; in that of `COCCC(=O)N1CCC2(COCc3cnc(-c4ccccc4)nc32)C1` (centres undefined), 2.54%.
With `CC(C)CNC(=O)N1C[C@H]2CCN[C@H]2C1`, the cytotoxicity at 70.5 h is -8.65%.
Consider `Cc1ccc(-c2nc(CN(Cc3cccs3)CC3CCCO3)no2)cc1` (centres undefined), for which the cytotoxicity at 70.5 h was -8.66%.
The same measure for `CCn1ccnc1CN1CCN(Cc2ccccn2)CC1C` (centres undefined): 9.97%.
Consider `Cc1nc(NCc2noc(C3CCCO3)n2)c2ccsc2n1` (centres undefined), for which the cytotoxicity at 70.5 h was 26.9%.
As to `CC(C)Cc1nc(CCn2cncn2)n(-c2ccc3c(c2)OCCO3)n1`, the cytotoxicity at 70.5 h is -18%.
On to `CCc1nc(C)c(C2CC(=O)Nc3c2c(C(C)(C)C)nn3C)[nH]1` (centres undefined), for which the cytotoxicity at 70.5 h worked out at 0.46%.
The same measure for `CCOC(=O)Cc1csc(NC(=O)c2cc(=O)c(OC)c[nH]2)n1`: 2.05%.
`COC(=O)CCNC(=O)c1cnc(Cc2ccc(F)cc2)s1`: the cytotoxicity at 70.5 h was -2.52%.
Turning to `NC(=O)c1cc(NC(=O)N2CCCCCC2)ccc1F`, the cytotoxicity at 70.5 h came to 35.1%.
In the case of `c1cnc(N2C[C@H]3CCN(CCN4CCCC4)C[C@H]3C2)cn1` it was -5.43%; in that of `Cc1csc(CNC(=O)NC(C)c2ccc3c(c2)CCC(=O)N3)n1` (centres undefined), -5.74%; in that of `CN(Cc1ccno1)C(=O)c1cccc(CC2CCNCC2)c1`, 6.56%.
The same measure for `COc1ccc(CC2(CO)CCN(c3cc(N)ncn3)CC2)cc1`: -6.39%.
On to `COc1ccc(C2(NCc3c(C)nc4c(C)cccn34)CCCC2)cc1`, for which the cytotoxicity at 70.5 h was -5.54%.
For `CC(C)CC(NC(=O)C1=CCCC1)C(=O)N1CCC(CO)CC1` (centres undefined), the cytotoxicity at 70.5 h came out at 0.304%.
As to `CN([C@@H]1CC[C@@H](N2CCCC2)[C@@H]1O)S(=O)(=O)c1ccccc1`, the cytotoxicity at 70.5 h was found to be 24.7%.
The same measure for `CN(Cc1nc(N)nc(N(C)C)n1)Cc1cccc2ccccc12`: -10.6%.
As to `CC(C)n1cnc2c1C(C(=O)N1CCCC1)N(S(C)(=O)=O)CC2` (centres undefined), the cytotoxicity at 70.5 h is -0.195%.
`COc1cccc(OC)c1OCCN1C(=O)CCNC1=O`: the cytotoxicity at 70.5 h stood at 26.5%.
The same measure for `COCCC(=O)N1CC[C@H]2C(=O)N(c3ccsc3)CCO[C@H]2C1`: -1.99%; for `Cc1nccn1CCCN1CCC(c2nccn2CC2CCC2)CC1`: -3.77%.
The same measure for `Cc1nc(NC(=O)c2nn(-c3ccc(F)cc3C)cc2O)n[nH]1`: -14.6%; for `Fc1cnc(N2CCO[C@H]3[C@H](OCCN4CCCC4)CC[C@@H]32)nc1`: -8.48%.
In the case of `COCCNC(=O)c1nc(-c2cn(C)cn2)n2ccccc12` it was -7.59%.
On to `COc1c(C2CCCN2CC(=O)Nc2cc(C)nn2C)c(C)nn1C` (centres undefined), for which the cytotoxicity at 70.5 h was -3.3%.
The same measure for `CN(C)c1nccc(N(C)C2CCOCC2)n1`: -2.99%; for `c1cncc(CNC2CCc3ncnn3C2)c1` (centres undefined): 34.5%; for `CC(NC(=O)c1sccc1C1CC1)c1ccc2c(c1)CC(=O)N2` (centres undefined): -1.98%.
In the case of `CCC(C)N(Cc1sccc1C)C(=O)c1ccc(S(C)(=O)=O)cc1` (centres undefined) it was -4.15%.
The same measure for `CCOCCCNC(=O)N(C)Cc1ccc(SC)c(OC)c1`: 1.54%; for `CC(O)CN1CCN(Cc2coc(-c3ccccc3)n2)CC1` (centres undefined): -7.79%; for `Cn1ccc2c(NC(=O)Cn3ncc4c(c3=O)CCCC4)cccc21`: 6.85%.
With `COCCN1C[C@H]2CC[C@@H]1CN(C(=O)CCn1cc(Cl)cn1)C2`, the cytotoxicity at 70.5 h was -10.6%.
For the molecule `Cc1ccc(N2CC[C@@H]3CN(Cc4cc[nH]n4)C[C@@H]3C2)nn1`, the cytotoxicity at 70.5 h was -2.82%.
In the case of `COCc1ncc(CN(CCN(C)C)Cc2ccc(C)s2)cn1` it was -4.43%; in that of `CCOCCC(=O)N1C[C@H]2CC[C@@H]1CN(c1ncccn1)C2`, -5.84%; in that of `Cc1nc(O)c2nnn(C[C@H]3CCCN3C(=O)C(C)(C)C)c2n1`, -13.1%.
In the case of `CCC(CC)C(=O)NC1CCCc2nc(N3CCOCC3)ncc21` (centres undefined) it was -4.12%; in that of `O=c1[nH]c2c(c(=O)n1C1CCCCC1)CCC2NCc1ccccc1` (centres undefined), -30.1%; in that of `Cc1nc(C)c(CC(=O)N2C[C@@H]3CC[C@H](C2)N(CC2CC2)C3)s1`, -3.8%.
In the case of `O=C(Nc1cccc(CNCc2csc(Br)c2)c1)C1CC1` it was 4.95%; in that of `O=C(c1cnc(-c2noc3cc(N4CCCC4)ccc23)s1)N1CCCC1`, -4.44%; in that of `CCN1CCC2(CN(C(=O)N(C)C)CC23CCN(CC2CC2)CC3)C1=O` (centres undefined), 18.4%.
`CCOc1cccc(CN2CCCn3nc(CNS(C)(=O)=O)cc3C2)c1`: the cytotoxicity at 70.5 h is -9.54%.
On to `Nc1ncc(-c2ccc(F)cc2)c(C2CCCNC2)n1` (centres undefined), for which the cytotoxicity at 70.5 h is 24.3%.
In the case of `O=C(C1CCCC1)N1CC2(CCN(C3COC3)CC2)Cc2ccccc21` it was -21%; in that of `O=c1[nH]c(-c2ccc(Cl)cc2)nc2c1CCNC2`, 12.1%.
The same measure for `Cc1ncncc1C(=O)N1CCOC(C)(C(=O)NC2CCCC2)C1` (centres undefined): -1.33%.
With `CCC(=O)N1CCC2(CCC(N3CCCC3)c3ccccc32)CC1` (centres undefined), the cytotoxicity at 70.5 h is -6.38%.
The same measure for `Cc1nc(C)c(CC(=O)Nc2nnc(C3CC3)s2)c(=O)[nH]1`: -7.66%; for `O=C(O)C1CCN(C(=O)Cn2ccc3c(Cl)cccc32)CC1`: -12.6%.
With `COc1nc(C)c(C(=O)N2CCN(c3ncccc3C)CC2)s1`, the cytotoxicity at 70.5 h is -4.24%.
